Earlier results on 6 compounds are cited in patent US7750039B2, “Indoles are cannabinoid receptor ligands” (priority 2004, dated 2010).

In series [1] the test system is CB1 receptor knockout mice.
The subject of series [2] is CB2 receptor knockout mice.
The test system of series [3] is apolipoprotein E knockout mice. The following applies: low doses, inhibited by SR144528.
The test system of series [4] is rat formalin model of persistent pain.
In series [5] the test system is CB1 receptor-mediated CNS side effects. The following applies: at fully efficacious doses.
The subject of a further series is animal models of pain. The following applies: acute thermal pain, persistent pain, inflammatory pain, neuropathic pain.
A further series concerns microglial. The following applies: in vitro; blocked by SR144528.
The subject of a further series is rodent models of pain. The following applies: neuropathic, incisional, chronic and acute inflammatory pain.
Series [6] has as its system ovariectomy-induced bone loss in mice. The following applies: model for post-menopausal osteoporosis.

In the case of (−)-Δ^9-Tetrahydrocannabinol [Δ^9-THC], the analgesic efficacy result in series [1] is given as “retains some analgesic efficacy”. For the same compound, the immunosuppressive effects result in [2] is listed as “absent”. For the same compound, the “progression of atherosclerotic lesions” value in series [3] is “slowed the progression of atherosclerotic lesions”.
`CCCCCCC(C)(C)c1cc(OC)c([C@@H]2C=C(CO)[C@@H]3C[C@H]2C3(C)C)c(OC)c1` [HU-308]: the antinociceptive response result in series [4] is reported as “elicits an antinociceptive response”.
For the compound `CN1CCCCC1Cn1cc(C(=O)c2cc([N+](=O)[O-])ccc2I)c2ccccc21` (centres unmarked) [AM-1241], the “CB1 receptor-mediated CNS side effects” value in series [5] is “devoid of typical CB1 receptor-mediated CNS side effects”. For the same compound, the analgesic efficacy entry with animal models of pain is “robust analgesic efficacy”.
As to `CCCC(C)(C)c1ccc2c(c1)OC(C)(C)[C@@H]1CC=C(C)C[C@@H]21` [JWH-133], in the series on microglial, the “β-amyloid-induced microglial activation and neurotoxicity” value is given as “abrogated”.
For the compound `COc1ccc2c(c1)c(CCN1CCOCC1)c(C)n2C(=O)c1cccc(Cl)c1Cl` [GW405833], the “CB1 receptor-mediated CNS side effects” value in series [5] is on record as “devoid of typical CB1 receptor-mediated CNS side effects”. The “efficacy in pain models” value in the series on rodent models of pain is “efficacious”.
As for SR144528, the ovariectomy-induced bone loss result in series [6] is given as “reverse ovariectomy-induced bone loss”. Besides, the osteoclast activity entry in the series with osteoclast is “inhibit osteoclast activity”.
